We go through one compound from paper PMC6413339 (EBioMedicine, 2019).

Structures are written as SMILES.

One test has as its target T1, Src (Homo sapiens, UniProt P12931).
T1 construct: purchased Invitrogen PR4336E
The test is described as follows: Cell-free kinase assay (Reaction Biology, ADP-Glo). The format is biochemical. The protocol:
Cell-free kinase activity assays were performed at Reaction Biology Corporation. Briefly, kinases were incubated with substrates, 100 μM ATP and a 3-fold serial dilution of compounds starting at 1 μM. DMSO was used as control. […] Experiments were performed in duplicates. The concentrations of kinases and substrates used in the assays are indicated on Table S1. Kinase activity was quantified using the ADP-Glo™ Kinase Assay System (Promega, Madison, WI) following the manufacturer's recommendations.
A general note: ADP-Glo turns the ADP formed in a reaction into a luminescent signal.

Test [1] deals with AML cell lines (MV4–11, MOLM-14, MOLM-14 (ITD, D835Y), MOLM-14 (ITD, F691 L)). Briefly: Cell cycle analysis (PI flow cytometry). Particulars: 24 h and 48 h. The test is classed as cell-based, human. The procedure: (§1) Cells seeded into T-25 flasks at a density of 8.0 × 10^4 cells/mL and incubated overnight at 37 °C with 5% CO2. Each treatment was performed in triplicates, with three flasks per treatment each with enough volume for both assays at the applicable time points. Following the overnight incubation, cells were treated with either DMSO or different concentrations of HSN431 (as indicated) in triplicates, mixed well and incubated. At each time point (24 and 48 h), aliquots of 1.5 mL of cells were collected from each flask and placed into labeled FACS tubes (for Annexin V apoptosis) or labeled 15 cc conical tubes (for cell cycle) and centrifuged at 300 × g for 5 min. Cells were washed twice with 1× PBS.
For cell cycle, cell pellets were resuspended in 0.5 mL PBS in 15 cc conical tubes and fixed with 4.5 mL of 70% ethanol. Fixed cells were stored at −20 °C until analysis with the Propidium Iodide (PI) Flow Cytometry Kit (cat. no. ab139418, Abcam, Cambridge, MA, USA). Samples were analyzed in duplicates on a FACSCanto II flow cytometer (BD Bioscience, San Jose, CA, USA) and cell cycle distribution was analyzed using the Watson algorithm analysis in FlowJo software (Flowjo, LLC, Ashland, OR).
(In flow cytometry, cells or beads pass a laser one at a time.)

Test [2] shares this test system. Briefly: Annexin V apoptosis (flow cytometry). The test is classed as cell-based, human. Particulars: 24 h and 48 h; dose- and time-dependent. The procedure: as §1
For Annexin V apoptosis, cell pellets were resuspended in 100 μL of 1× assay buffer and the binding of Annexin V and PI were measured by staining cells following the BD Pharmingen™ FITC Annexin V Apoptosis Detection Kit I (cat. no. 556547, BD Biosciences, San Jose, CA, USA) recommendations. Flow cytometry was performed on a a FACSCanto II flow cytometer (BD Bioscience, San Jose, CA, USA) and data analyzed using the FlowJo software (Flowjo, LLC, Ashland, OR).

T1 sequence (P12931 whole entry): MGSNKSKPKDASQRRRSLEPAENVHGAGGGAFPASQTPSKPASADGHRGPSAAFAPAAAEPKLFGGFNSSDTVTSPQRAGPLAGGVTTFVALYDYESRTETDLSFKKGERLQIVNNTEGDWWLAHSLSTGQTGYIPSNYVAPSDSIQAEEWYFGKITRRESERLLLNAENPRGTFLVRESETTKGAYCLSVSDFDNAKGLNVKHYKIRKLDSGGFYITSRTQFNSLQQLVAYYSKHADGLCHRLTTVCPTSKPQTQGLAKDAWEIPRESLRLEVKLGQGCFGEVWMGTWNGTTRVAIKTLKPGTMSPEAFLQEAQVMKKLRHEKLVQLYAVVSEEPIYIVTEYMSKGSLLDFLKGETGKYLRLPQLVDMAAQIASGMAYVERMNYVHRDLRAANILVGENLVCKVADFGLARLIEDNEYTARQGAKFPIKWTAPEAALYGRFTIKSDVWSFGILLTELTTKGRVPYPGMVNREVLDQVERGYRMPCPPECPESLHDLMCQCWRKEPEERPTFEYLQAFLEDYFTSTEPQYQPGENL

The term IC50 denotes the concentration that inhibits the measured activity by half. Broadly, the inhibition is the share of the control response that was lost under treatment. With `Cc1ncc(C(=O)Nc2ccc(CN3CCN(C)CC3)c(C(F)(F)F)c2)cc1C#Cc1c(N)ncc2ccc(F)cc12` [Compound 7], at Src (Src 0.6 nM, ATP 100 μM, read-out: IC50 against Src), the half-maximal inhibitory concentration (IC50) came out at 12.6 nM. On Src (inhibitor 500 nM, 100 μM ATP, average of duplicate), this compound showed an inhibition at 0.5 µM of 98%. In test [1], the “cells in the sub-G1 phase” value is listed as “accumulation” and the “distribution of cells in the S phase” value is “decreases”. In test [1] (dose- and time-dependent), the “population of cells in the G0/G1 phase” value is listed as “increase”. For the same compound, the total apoptosis result in test [2] is “induced apoptosis”.
